# Measurements as given in ChEMBL document CHEMBL1201862, “PubChem BioAssay data set” (2004).
#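 Five concentrations, 48 hours, 96-well plates. GI50 is the concentration that inhibits growth by half.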 Activity calls are given as the source filed them. No stated cut-off is given here; in the data, active = GI50 up to about 1.1 µM and inactive = higher.
# How the values were obtained:
# Assay in all cases: NCI-60 cell line screen, 48 h
# U-251 = tested on: U-251
# NCI-H522 = tested on: NCI-H522
# HCT-15 = tested on: HCT-15
# SF-295 = tested on: SF-295
# OVCAR-5 = tested on: OVCAR-5
# SK-OV-3 = tested on: SK-OV-3
# COLO 205 = tested on: COLO 205
# SF-268 = tested on: SF-268
# HT-29 = tested on: HT-29
# CAKI-1 = tested on: CAKI-1
# KM12 = tested on: KM12
# OVCAR-8 = tested on: OVCAR-8
# UACC-62 = tested on: UACC-62
# UO-31 = tested on: UO-31
# TK-10 = tested on: TK-10
# SK-MEL-5 = tested on: SK-MEL-5
# ACHN = tested on: ACHN
# K562 = tested on: K562
# NCI-H226 = tested on: NCI-H226
# SF-539 = tested on: SF-539
SMILES,GI50 (U-251),GI50 (NCI-H522),GI50 (HCT-15),GI50 (SF-295),GI50 (OVCAR-5),GI50 (SK-OV-3),GI50 (COLO 205),GI50 (SF-268),GI50 (HT-29),GI50 (CAKI-1),GI50 (KM12),GI50 (OVCAR-8),GI50 (UACC-62),GI50 (UO-31),GI50 (TK-10),GI50 (SK-MEL-5),GI50 (ACHN),GI50 (K562),GI50 (NCI-H226),GI50 (SF-539)
Nc1nnc2ccc(Cl)cc2[n+]1[O-],> 100 µM (inactive),38 µM (inactive),36.2 µM,> 100 µM (inactive),> 100 µM (inactive),28.6 µM (inactive),24.4 µM (inactive),38 µM (inactive),42.4 µM (inactive),> 100 µM (inactive),> 100 µM (inactive),24.9 µM (inactive),49 µM (inactive),> 100 µM (inactive),> 100 µM (inactive),31 µM (inactive),62.7 µM (inactive),21.8 µM (inactive),> 100 µM (inactive),–
O=c1c(-c2ccccc2)c(SCCN2CCCCCC2)n(-c2ccccc2)c(=S)n1-c1ccccc1,–,20.3 µM (inactive),51.3 µM,83.9 µM (inactive),21.1 µM (inactive),> 100 µM (inactive),30.4 µM (inactive),–,–,22.9 µM (inactive),27.3 µM (inactive),80 µM (inactive),48.9 µM (inactive),–,48.4 µM (inactive),23.2 µM (inactive),54.6 µM (inactive),19.6 µM (inactive),94.8 µM (inactive),> 100 µM (inactive)
Cc1cccc(C(O)c2cccnc2)c1O (centres undefined),> 100 µM (inactive),> 100 µM (inactive),> 100 µM,> 100 µM (inactive),39.2 µM (inactive),–,> 100 µM (inactive),> 100 µM (inactive),> 100 µM (inactive),> 100 µM (inactive),> 100 µM (inactive),> 100 µM (inactive),35.7 µM (inactive),> 100 µM (inactive),> 100 µM (inactive),76.4 µM (inactive),> 100 µM (inactive),> 100 µM (inactive),> 100 µM (inactive),> 100 µM (inactive)
CC1=CC[C@H](C)C(C)(C)C1/C=C/C(C)=C/CC[C@@]1(CO)[C@H](CCCO)/C(=C(/C)C=O)CC[C@]1(C)O (some centres undefined),2.86 µM (inactive),4.06 µM (inactive),7.64 µM,1.23 µM (inactive),23.6 µM (inactive),25.2 µM (inactive),1.05 µM (active),7.46 µM (inactive),2.77 µM (inactive),3.61 µM (inactive),1.61 µM (inactive),15 µM (inactive),–,8.45 µM (inactive),5.5 µM (inactive),0.513 µM (active),3.68 µM (inactive),1.31 µM (inactive),1.9 µM (inactive),6.78 µM (inactive)
CCOC(=O)C(OP(=O)(OCC)OCC)C(F)(F)F (centres undefined),> 100 µM (inactive),> 100 µM (inactive),> 100 µM,–,> 100 µM (inactive),> 100 µM (inactive),–,> 100 µM (inactive),> 100 µM (inactive),–,> 100 µM (inactive),–,> 100 µM (inactive),> 100 µM (inactive),> 100 µM (inactive),–,> 100 µM (inactive),> 100 µM (inactive),> 100 µM (inactive),> 100 µM (inactive)
N#Cc1ccccc1NC(=O)C(=O)C(C(=O)c1ccccc1F)C1OC(=O)c2ccccc21 (centres undefined),15 µM (inactive),21 µM (inactive),30.1 µM,55.1 µM (inactive),65.6 µM (inactive),41.3 µM (inactive),37.7 µM (inactive),40.1 µM (inactive),40 µM (inactive),64.4 µM (inactive),41.2 µM (inactive),40.7 µM (inactive),41 µM (inactive),43.8 µM (inactive),> 100 µM (inactive),89.3 µM (inactive),80.7 µM (inactive),36.7 µM (inactive),18.4 µM (inactive),24.8 µM (inactive)
CCOC(=O)C(C(=O)OCC)c1cc(-c2cc3ccccc3o2)oc(=O)c1C#N,16.2 µM (inactive),–,19.1 µM,22.2 µM (inactive),18.5 µM (inactive),–,20.5 µM (inactive),34.9 µM (inactive),18.6 µM (inactive),17.4 µM (inactive),35.6 µM (inactive),21.4 µM (inactive),–,32.2 µM (inactive),27.3 µM (inactive),32.5 µM (inactive),34.6 µM (inactive),29 µM (inactive),21.1 µM (inactive),19.3 µM (inactive)
Brc1ccccc1-c1ncc(-c2ccccc2)o1,17 µM (inactive),22.6 µM (inactive),7.36 µM,33.9 µM (inactive),66.5 µM (inactive),31.1 µM (inactive),20.1 µM (inactive),27.9 µM (inactive),29.9 µM (inactive),32.1 µM (inactive),17.4 µM (inactive),37.1 µM (inactive),32.2 µM (inactive),43.7 µM (inactive),47.2 µM (inactive),18.1 µM (inactive),33.6 µM (inactive),21.1 µM (inactive),–,9.91 µM (inactive)
